Assay results reported in US4183931A, “2-Ketoalkyl-4(3H)-quinazolinones” (Research Corporation, priority 1977, dated 1980).

Assays:
[1] = NPP maximal electroshock seizure (MES) protection; type: in vivo, white male mice of the Carworth Farm Strain CF-1; conditions: Mus musculus, ip; conducted at 30 mg/kg i.p.
[2] = NPP lethality (estimated LD50); conditions: mouse, in vivo, ip
[3] = NINCDS Maximal Electroshock Seizure Test (MES); type: in vivo, mice; conditions: for minimal effective dose: read-out: MES: dosage level that elicited protection
Procedure: 1. Neurological Activity Tests. […] Compounds were evaluated for anticonvulsant activity in two seizure models, the maximal electroshock seizure (MES) test and the subcutaneous pentylenetetrazol (Metrazol) seizure threshold (scMet) test.
The Maximal Electroshock Seizure Test was performed according to the method described by Swinyard and coworkers,* wherein a drop of 0.9% saline is instilled in each eye prior to application of corneal electrodes. Seizures are elicited with a 50 Hz alternating current of 50 mA (5 to 7 times that necessary to elicit minimal electroshock seizures) delivered for 0.2 sec via corneal electrodes. This stimulus will produce a maximal seizure in all normal mice. The maximal seizure typically consists of a short period of initial tonic flexion and a prolonged period of hind limb tonic extension, followed by terminal clonus. The seizure lasts about 22 seconds. Abolition of the hind limb tonic extensor component of the seizure is defined as protection and indicates anticonvulsant activity in the test compound.
The ability of a compound to prevent maximal electroshock seizures is believed to correlate with its ability to prevent the spread of seizure discharge through neural tissue. Activity against maximal electroshock seizures is thought to indicate potential efficacy in the treatment of major motor (grand mal) seizures. […] Selective action in the test is believed to indicate potential efficacy against absence (petit mal) seizures.
As described earlier, the MES, scMet and Rotorod tests were performed one-half hour and four hours after administration of each compound.
In the Secondary Evaluation, median effective doses (ED50) are determined in the MES, scMet and Rotorod assays using the procedures defined in Pharmacology, 95, 99-113 (1949).
Separate groups of animals are used for each time period. The times of peak toxic and anticonvulsant effect are taken from the resulting graph of percent of animals responding vs. time, and the determinations of median effective doses are performed at those times.

[4] = NINCDS Subcutaneous Pentylenetetrazol (Metrazol) Seizure Threshold Test (scMet); type: in vivo, mice; conditions: for minimal effective dose: sc, read-out: scMet: dosage level that elicited protection
[5] = NINCDS primary evaluation, overall classification; type: in vivo, mice; conditions: mouse, in vivo
Procedure: 1. Neurological Activity Tests. The biological testing program is designed to evaluate the following four aspects of drug action: (1) the existence and specificity of anticonvulsant activity; (2) the toxicity, particularly to the central nervous system; and, if the results of (1) and (2) are favorable, (3) the potency and protective index, a comparison between toxic and effective dose and (4) the time course of activity. Compounds were evaluated for anticonvulsant activity in two seizure models, the maximal electroshock seizure (MES) test and the subcutaneous pentylenetetrazol (Metrazol) seizure threshold (scMet) test.
Specific anticonvulsant evaluations performed by NINCDS using MES, scMet and Rotorod assays are presented in Tables III & IV for fourteen new compounds as well as several known compounds. Table III centers attention on 2-substituted-3-o-tolyl-4-(3H)-quinazolinones while Table IV includes the findings for various other 2,3-disubstituted-4(3H)-quinazolinones. As described earlier, the MES, scMet and Rotorod tests were performed one-half hour and four hours after administration of each compound. The tables identify the dosage level that elicited a positive result, such as protection against MES and scMet induced seizures, or loss of balance on the rotorod.

[6] = Mus musculus, ip, secondary evaluation, at time of peak effect

## O=C(Cc1nc2ccccc2c(=O)n1-c1ccccc1Cl)c1ccncc1 [IVd, 2-[2-Oxo-2-(4-pyridyl)ethyl]-3-o-chlorophenyl-4(3H)-quinazolinone]
[1]
  responders at 30 mg/kg: 50%
[2]
  LD50 at 48 h: 237 mg/kg
[3]; Mus musculus, ip, after 0.5 hr
  minimal effective dose: 300 mg/kg
[3]; Mus musculus, ip, after 4 hr (value in parentheses)
  minimal effective dose: 100 mg/kg
[3]; [6]
  ED50: 33.5 mg/kg
[3]; secondary evaluation
  MES protective index compared with methaqualone: approximately four-fold higher
  PI MES (Protective Index = TD50/ED50): 4.08
  potency against electroshock-induced (MES) seizures compared with methaqualone: more potent
[3]; vs Ethotoin, Mephenytoin, Phenobarbital, Metharbital, Trimethadione, Paramethadione, Methsuximide, Phensuximide, Diazepam, Clonazepam
  MES protective index compared with commercial agents: higher MES protective index
[4]; [6]
  ED50: 30.8 mg/kg
[4]; Mus musculus, after 0.5 hr
  minimal effective dose: 30 mg/kg
[4]; Mus musculus, after 4 hr (value in parentheses)
  minimal effective dose: 100 mg/kg
[4]; secondary evaluation
  PI scMet (Protective Index = TD50/ED50): 4.44
  potency against scMet seizures compared with methaqualone: more potent
  scMet protective index compared with Ethosuximide: higher scMet protective index than Ethosuximide
  scMet protective index compared with methaqualone: approximately four-fold higher
[4]; vs Ethotoin, Trimethadione, Paramethadione, Ethosuximide, Methsuximide, Phensuximide, Phenacamide (data of DHEW Publication No. (NIH) 76-1093)
  scMet ED50 compared with commercial petit mal agents: lower ED50 in the scMet screen than the commercially available petit mal agents
[5]
  dosage for useful anticonvulsant activity relative to dosage for sedative-hypnotic activity: fourfold lower
